Measurements: patent US5229409A, “6-substituted-tetrahydrobenz[cd]indoles” (Eli Lilly and Company, priority 1991, dated 1993)

Columns and labels:
5-HT1D receptor = molecular target: T1, 5-HT1D receptor (Bos taurus, UniProt F1MGM3); test: [3H]5-HT binding to 5-HT1D sites in caudate nuclei membranes; details: bovine caudate membranes, [3H]5-HT 1.7-1.9 nM, pH 7.4, 37° C
T1 construct: the caudate nuclei were dissected out and frozen at -70° C; tissue Pel-Freeze Biologicals; host or cells: bovine caudate nuclei, washed membranes
T1 sequence (F1MGM3 1-403): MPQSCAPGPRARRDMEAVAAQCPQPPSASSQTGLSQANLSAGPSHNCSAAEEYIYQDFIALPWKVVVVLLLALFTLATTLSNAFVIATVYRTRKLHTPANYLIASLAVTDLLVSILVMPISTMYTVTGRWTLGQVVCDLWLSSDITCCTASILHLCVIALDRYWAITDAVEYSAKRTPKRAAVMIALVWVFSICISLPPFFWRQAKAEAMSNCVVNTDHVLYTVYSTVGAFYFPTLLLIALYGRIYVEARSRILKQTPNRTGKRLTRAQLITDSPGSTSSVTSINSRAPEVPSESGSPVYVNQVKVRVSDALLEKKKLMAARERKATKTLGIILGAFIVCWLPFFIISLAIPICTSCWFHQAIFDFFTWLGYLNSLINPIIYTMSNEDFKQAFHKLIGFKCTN
Procedure: The affinities of the compounds at the central 5-HT1D binding sites were determined using a modification of the binding assay described by Heuring and Peroutka (J. Neurosci. 7:894-903, 1987). Bovine brains were obtained from Pel-Freeze Biologicals, and the caudate nuclei were dissected out and frozen at -70° C. until the time that the membranes were prepared for the binding assays. At that time the tissues were homogenized in 40 volumes of ice-cold Tris-HCl buffer (50 mM, pH 7.4 at 22° C.) with a Techmar Tissumizer (setting 65 for 15 sec), and the homogenate was centrifuged at 39,800 g for 10 min. The resulting pellet was then resuspended in the same buffer, and the centrifugation and resuspension process was repeated three additional times to wash the membranes. Between the second and third washes the resuspended membranes were incubated for 10 min at 37° C. to facilitate the removal of endogenous 5-HT. the final pellet was resuspended in Tris buffer to a concentration of 25 mg of original tissue wet weight/ml for use in the binding assay. […] The assay tubes were incubated for 10 min at 37° C., and the contents were then rapidly filtered through GF/B filters (pretreated with 0.5% polyethylenimine), followed by four one-mL washes with ice-cold buffer. The radioactivity trapped by the filters was quantitated by liquid scintillation spectrometry, and specific [^3 H]5-HT binding to the 5HT1D sites were defined as the difference between [^3 H]5-HT bound in the presence and absence of 10 μM 5-HT.
The affinities of compounds at the 5-HT1D receptor are expressed as IC50 values, i.e., the concentration required to inhibit 50% of the binding. These values were determined from 12-point competition curves using nonlinear regression (SYSTAT, SYSTAT, Inc. Evanston, Ill.).

serotonin [1] = test: whole brain serotonin concentration in vivo in rats; design: species or system rat (male albino); details: 1 hour
Procedure: (§1) In another experiment certain compounds of the Examples were evaluated to determine ability to affect the 5-hydroxyindoles serotonin and 5-hydroxyindole acetic acid (5HIAA), and serum corticosterone, in vivo. Male albino rats were injected subcutaneously with an aqueous solution of the compound. The pH of the solution was adjusted as necessary to solubilize the compound. A control of the solution without the test compound was similarly injected into a control animal. The rats were decapitated one hour later. Trunk blood was collected and allowed to clot. After centrifugation, serum was stored frozen prior to analysis. The whole brain was removed and frozen on dry ice for storage prior to analysis. The serum corticosterone concentration was measured spectrofluorometrically using the procedure of Solem and Brinck-Johnson, "An Evaluation of a Method for Determination of Free Corticosteroids in Minute Quantities of Mouse Plasma", Scand. J. Clin. Lab. Invest., Suppl. 80, p. 1-14 (1965), incorporated herein by reference. 5-Hydroxyindoleacetic acid (5HIAA) concentration in whole brain was measured by liquid chromatography with electrochemical detection as reported by Fuller and Perry, "Effects of Buspirone and its Metabolite, 1-(2-pyrimidinyl)piperazine, on Brain Monoamines and Their Metabolites in Rats", J. Pharmacol. Exp. Ther., 248, p. 50-56 (1989), incorporated herein by reference.

serotonin [2] = test: as above; design: species or system rat (male albino); details: 5 hrs before sacrifice
rats = test: death of treated rats in the in vivo 5-hydroxyindole/corticosterone experiment; design: species or system rat (male albino); details: 3 mg/kg s.c.
Procedure: as §1

[3] = 0.0003 mg/kg s.c., series 0.0003-0.03 mg/kg
[4] = 0.003 mg/kg s.c., series 0.0003-0.03 mg/kg
[5] = 0.03 mg/kg s.c., series 0.0003-0.03 mg/kg
[6] = 0.03 mg/kg s.c., series 0.03-3 mg/kg
[7] = 0.3 mg/kg s.c., series 0.03-3 mg/kg
[8] = 3 mg/kg s.c., series 0.03-3 mg/kg

Compound: CCCN(CCC)C1Cc2c[nH]c3ccc(C(C)=O)c(c23)C1 (racemic) [Example 2, (±)-6-Acetyl-4-(di-n-propylamino)-1,3,4,5-tetrahydrobenz[cd]indole]
- IC50 (5-HT1D receptor): 18.4 nM
- Serotonin (serotonin [1]; [3]): 2.71 ± 0.06 nmol/g
- Serotonin (serotonin [1]; [4]): 2.64 ± 0.11 nmol/g
- Serotonin (serotonin [1]; [5]): 3.23 ± 0.11 nmol/g
- Serotonin (serotonin [1]; [6]): 2.60 ± 0.09 nmol/g
- Serotonin (serotonin [1]; [7]): 2.54 ± 0.14 nmol/g
- Serotonin (serotonin [1]; [8]): 3.25 ± 0.01 nmol/g

Compound: CCCN(CCC)[C@@H]1Cc2c[nH]c3ccc(C(C)=O)c(c23)C1 [Example 8, (4S)-(-)-6-acetyl-4-(di-n-propylamino)-1,3,4,5-tetrahydrobenz[cd]indole]
- IC50 (5-HT1D receptor): 96.4 nM
- Serotonin (serotonin [1]; [3]): 2.91 ± 0.12 nmol/g
- Serotonin (serotonin [1]; [4]): 2.65 ± 0.13 nmol/g
- Serotonin (serotonin [1]; [5]): 3.30 ± 0.09 nmol/g
- Serotonin (serotonin [1]; [6]): 2.58 ± 0.15 nmol/g
- Serotonin (serotonin [1]; [7]): 2.78 ± 0.13 nmol/g
- Serotonin (serotonin [1]; [8]): 2.63 ± 0.12 nmol/g
- Serotonin (serotonin [2]; 0.1 mg/kg orally): 2.77 ± 0.07 nmol/g
- Serotonin (serotonin [2]; 0.3 mg/kg orally): 2.47 ± 0.07 nmol/g
- Serotonin (serotonin [2]; 1 mg/kg orally): 2.86 ± 0.07 nmol/g
- Serotonin (serotonin [2]; 3 mg/kg orally): 2.68 ± 0.11 nmol/g

Compound: CCCN(CCC)[C@H]1Cc2c[nH]c3ccc(C(C)=O)c(c23)C1 [Example 7, (4R)-(+)-6-acetyl-4-(di-n-propylamino)-1,3,4,5-tetrahydrobenz[cd]indole]
- IC50 (5-HT1D receptor): 7.46 nM
- Serotonin (serotonin [1]; [3]): 2.68 ± 0.11 nmol/g
- Serotonin (serotonin [1]; [4]): 2.74 ± 0.07 nmol/g
- Serotonin (serotonin [1]; [5]): 3.00 ± 0.10 nmol/g
- Serotonin (serotonin [1]; [6]): 2.47 ± 0.07 nmol/g
- Serotonin (serotonin [1]; [7]): 2.59 ± 0.14 nmol/g
- death of treated rats (rats): dead within one hour

Compound: CCCN(CCC)[C@H]1Cc2c[nH]c3ccc(C(=O)C(C)C)c(c23)C1 [Example 9, (4R)-(+)-6-(2-methylpropanoyl)-4-(di-n-propylamino)-1,3,4,5-tetrahydrobenz[cd]indole]
- IC50 (5-HT1D receptor): 1.27 nM
- Serotonin (serotonin [1]; [3]): 2.76 ± 0.10 nmol/g
- Serotonin (serotonin [1]; [4]): 2.94 ± 0.11 nmol/g
- Serotonin (serotonin [1]; [5]): 3.08 ± 0.11 nmol/g
- Serotonin (serotonin [1]; [6]): 2.56 ± 0.07 nmol/g
- Serotonin (serotonin [1]; [7]): 2.94 ± 0.13 nmol/g
- Serotonin (serotonin [1]; [8]): 2.65 ± 0.07 nmol/g
